The compounds below were run against T1, human PAH with the R408W mutation (A375 R408W cells) (Homo sapiens, UniProt P00439, R408W) (assay: Cell Based Phenylalanine Flux Assay). Settings: A375 R408W cells; 24 hrs with compound, then 20 μM sepiapterin and 800 μM 13C9,15N-Phenylalanine for 4 hours; 13C-Tyrosine by LC-MS; average where tested multiple times.
T1 construct: expressed in transfected cells
T1 sequence (P00439 1-452 R408W): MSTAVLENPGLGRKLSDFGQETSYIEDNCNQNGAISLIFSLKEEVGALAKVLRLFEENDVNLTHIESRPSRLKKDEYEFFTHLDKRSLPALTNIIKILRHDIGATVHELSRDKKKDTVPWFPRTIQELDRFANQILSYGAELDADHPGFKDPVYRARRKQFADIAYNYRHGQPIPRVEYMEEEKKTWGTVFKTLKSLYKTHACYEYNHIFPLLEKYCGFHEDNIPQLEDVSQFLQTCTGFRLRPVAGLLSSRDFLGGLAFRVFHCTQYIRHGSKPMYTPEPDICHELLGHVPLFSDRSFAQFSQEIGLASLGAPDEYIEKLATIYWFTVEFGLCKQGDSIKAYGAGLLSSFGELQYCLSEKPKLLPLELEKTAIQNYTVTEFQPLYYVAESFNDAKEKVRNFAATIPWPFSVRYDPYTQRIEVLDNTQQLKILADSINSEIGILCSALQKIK
Method in brief: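 LC-MS quantitation of 13C-tyrosine in media gave AC50 values. Stable A375 R408W PAH cells were preincubated 24 h with compound, then fed 800 μM labelled Phe plus 20 μM sepiapterin for 4 h. Dose curves were 10-point, tested in duplicate, averaged over repeat runs.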
Compound `Cc1cccc2oc([C@H]3c4nc[nH]c4CCN3C(=O)c3ncnn3C)nc12` [Example 902, (R)-(1-methyl-1H-1,2,4-triazol-5-yl)(4-(4-methylbenzo[d]oxazol-2-yl)-6,7-dihydro-1H-imidazo[4,5-c]pyridin-5(4H)-yl)methanone] has an AC50 of 1000 to 5000 nM.
For `COCc1ccc2c(C(=O)N3CCc4[nH]cnc4[C@@H]3c3nc4cc(C)ccc4o3)cnn2c1` [Example 878, (R)-(6-(methoxymethyl)pyrazolo[1,5-a]pyridin-3-yl)(4-(5-methylbenzo[d]oxazol-2-yl)-6,7-dihydro-1H-imidazo[4,5-c]pyridin-5(4H)-yl)methanone], the AC50 was ≥ 5000 nM.
With `CC(C)(O)c1nc(C(F)F)c(C(=O)N2Cc3[nH]cnc3[C@H]2c2nc3ccccc3o2)o1` [Example 947, (S)-(4-(benzo[d]oxazol-2-yl)-4,6-dihydropyrrolo[3,4-d]imidazol-5(1H)-yl)(4-(difluoromethyl)-2-(2-hydroxypropan-2-yl)oxazol-5-yl)methanone] the AC50 was ≥ 5000 nM.
In the case of `COCc1ccc2c(C(=O)N3CCc4[nH]cnc4[C@H]3c3nc4cc(F)ccc4o3)cnn2c1` [Example 29, (S)-(4-(5-fluorobenzo[d]oxazol-2-yl)-6,7-dihydro-1H-imidazo[4,5-c]pyridin-5(4H)-yl)(6-(methoxymethyl)pyrazolo[1,5-a]pyridin-3-yl)methanone], the AC50 is reported as 1000 to 5000 nM.
For `O=C(c1nnc(-c2ccc(F)cc2F)o1)N1CCc2[nH]cnc2[C@@H]1c1nc2cc(F)ccc2o1` [Example 83, (R)-(5-(2,4-difluorophenyl)-1,3,4-oxadiazol-2-yl)(4-(5-fluorobenzo[d]oxazol-2-yl)-6,7-dihydro-1H-imidazo[4,5-c]pyridin-5(4H)-yl)methanone], the AC50 was 1000 to 5000 nM.
With `CC(C)(F)c1ncc(C(=O)N2CCc3[nH]cnc3[C@H]2c2nc3cc(F)ccc3o2)o1` [Example 13, (S)-(4-(5-fluorobenzo[d]oxazol-2-yl)-6,7-dihydro-1H-imidazo[4,5-c]pyridin-5(4H)-yl)(2-(2-fluoropropan-2-yl)oxazol-5-yl)methanone] the AC50 was ≤ 500 nM.
`Cc1cccc2nc([C@@H]3c4nc[nH]c4CCN3C(=O)c3oc(C(C)(C)O)nc3C(F)F)oc12` [Example 392, (S)-(4-(difluoromethyl)-2-(2-hydroxypropan-2-yl)oxazol-5-yl)(4-(7-methylbenzo[d]oxazol-2-yl)-6,7-dihydro-1H-imidazo[4,5-c]pyridin-5(4H)-yl)methanone] was tested, and the AC50 was ≤ 500 nM.
Compound `Cc1ccc2oc([C@H]3c4nc[nH]c4CCN3C(=O)c3oc(C(C)(C)O)nc3Br)nc2c1` [Example 408, (R)-(4-bromo-2-(2-hydroxypropan-2-yl)oxazol-5-yl)(4-(5-methylbenzo[d]oxazol-2-yl)-6,7-dihydro-1H-imidazo[4,5-c]pyridin-5(4H)-yl)methanone] has an AC50 of 500 to 1000 nM.
In the case of `CC(C)(O)c1nc(C(F)F)c(C(=O)N2CCc3[nH]cnc3[C@@H]2c2nc3ccccc3o2)o1` [Example 469, (R)-(4-(benzo[d]oxazol-2-yl)-6,7-dihydro-1H-imidazo[4,5-c]pyridin-5(4H)-yl)(4-(difluoromethyl)-2-(2-hydroxypropan-2-yl)oxazol-5-yl)methanone], the AC50 is reported as 1000 to 5000 nM.
`O=C(c1nnc(-c2ccc(OC(F)(F)F)cn2)o1)N1CCc2[nH]cnc2[C@@H]1c1nc2cc(F)ccc2o1` [Example 672, (R)-(4-(5-fluorobenzo[d]oxazol-2-yl)-6,7-dihydro-1H-imidazo[4,5-c]pyridin-5(4H)-yl)(5-(5-(trifluoromethoxy)pyridin-2-yl)-1,3,4-oxadiazol-2-yl)methanone] showed an AC50 of 1000 to 5000 nM.
`CC(C)(O)c1nc(C(F)F)c(C(=O)N2CCc3[nH]cnc3[C@@H]2c2nc3cc(F)ccc3o2)o1` (single isomer, unassigned) [Example 108] was tested, and the AC50 was 1000 to 5000 nM.
`Cc1ccc2nc([C@@H]3c4nc[nH]c4CCN3C(=O)c3oc(C(C)(C)O)nc3C(F)F)oc2c1` [Example 315, (S)-(4-(difluoromethyl)-2-(2-hydroxypropan-2-yl)oxazol-5-yl)(4-(6-methylbenzo[d]oxazol-2-yl)-6,7-dihydro-1H-imidazo[4,5-c]pyridin-5(4H)-yl)methanone] was tested, and the AC50 was ≤ 500 nM.

Same assay, conditions: A375 cells expressing R408W PAH; 24 hrs with compound, then 20 μM sepiapterin and 800 μM 13C9,15N-Phenylalanine for 4 hours; 13C-Tyrosine by LC-MS; average where tested multiple times
In the case of `Cn1nc(C(F)(F)F)nc1C(=O)N1CCc2[nH]cnc2C1c1nc2ccc(F)cc2o1` (stereo not shown), the AC50 is reported as 1000 to 5000 nM.
